Results on ten compounds are retold here after patent publication US20220357332A1, “TRIPHENYLENE DERIVATIVES FOR USE IN IMAGING BIOLOGICAL TISSUE OR FLUID” (CHROMATWIST LIMITED, priority 2019, published 2022).

Data set [1] in a line: Luminescence data for pairs of compounds absorbing at the same wavelength and emitting at different wavelengths. The format is physicochemical. Particulars: for ε × 10^3 (M^−1 cm^−1) at 355 nm / ε × 10^3 (M^−1 cm^−1) at 405 nm / ε × 10^3 (M^−1 cm^−1) at λMax / Absorption λMax / Emission λMax: solvent not given. From the text: Referring now to Tables 2 to 4, there is provided luminescence data for pairs of compounds which are capable of absorbing at the same wavelength and emitting at different wavelengths.

Data set [2] can be described thus: Luminescent data (absorption, emission, quantum yield, brightness) in solvents. The format is physicochemical. The text has this: Referring now to Table 1, there is shown luminescent data for Compounds 1 to 6.
The next data set concerns Huh-7 cells. The following applies: 1 hr, Huh-7 cells labelled with CMFDA. From the text:
To test the relative toxicity of tetrahydrofuran (THF) for liver cells, Huh-7 cells (hepatoma cell line used for a model of hepatocytes) were labelled with CMFDA (CellTracker Green, in DMSO, Invitrogen) and then treated with half log concentrations of THF (0.1%, 0.3%, 1%, 3%) for 1 hr. Cells were then imaged live using a Zeiss primovert fluorescence microscope.

Data set [3] is described as follows: Solubility (statements in words). In kind it is physicochemical. The following applies: water.
[4] abbreviates: Acetonitrile (ϵr 37.5, viscosity 0.38 cP).
Where [5] appears, read: Ethyl acetate (ϵr 6.0, viscosity 0.45 cP).
Where [6] appears, read: Octan-1-ol (ϵr 10.3, viscosity 7.36 cP).

For the compound `CCCCCOc1cc2c3cc(OCCCCC)c(OCCCCC)cc3c3c(cc(OCCCCC)c4oc(-c5ccc(C#N)cc5)nc43)c2cc1OCCCCC` [Compound 12, 4-(2,3,6,11,12-pentakis(pentyloxy)triphenyleno[1,2-d]oxazol-8-yl)benzonitrile], in data set [1], the QY is reported as 0.32, the “pSS (cm^−1)” value is given as 18800 cm^−1, the “pSS (nm)” value was 286 nm and the “Absorption % Abs at 355 nm” value came to 12%. In addition, in data set [1], the “Absorption % Abs at 405 nm” value is 14%, the “ε × 10^3 (M^−1 cm^−1) at 355 nm” value is recorded as 13 × 10^3 M^−1 cm^−1, the “ε × 10^3 (M^−1 cm^−1) at 405 nm” value is 14 × 10^3 M^−1 cm^−1 and the “ε × 10^3 (M^−1 cm^−1) at λMax” value is 103 × 10^3 M^−1 cm^−1. In addition, in data set [1], the “Absorption λMax” value was determined as 272 nm and the “Emission λMax” value is reported as 558 nm.
Regarding `CCCCCOc1cc2c3cc(OCCCCC)c(OCCCCC)cc3c3c(cc(OCCCCC)c4oc(-c5ccccc5)nc43)c2cc1OCCCCC` [Compound 2, 2,3,6,11,12-pentakis(pentyloxy)-8-phenyltriphenyleno[1,2-d]oxazole], in data set [2] (setting [4]), the “Absorption λmax” value was found to be 270 nm, the Brightness amounted to 38 ± 4 M⁻¹ cm⁻¹, the “Emission λmax” value was found to be 492 nm and the pSS stood at 16700 cm^−1. This compound registered a Φ in data set [2] (setting [4]) of 0.46 ± 0.04. Besides, in data set [2] (setting [5]), the “Absorption λmax” value amounted to 270 nm, the Brightness turned out to be 51 ± 5 M⁻¹ cm⁻¹, the “Emission λmax” value is given as 467 nm and the pSS was determined as 15600 cm^−1. The compound also had a Φ in data set [2] (setting [5]) of 0.46 ± 0.04. Moreover, in data set [2] (setting [6]), the “Absorption λmax” value was determined as 271 nm, the Brightness turned out to be 64 ± 6 M⁻¹ cm⁻¹, the “Emission λmax” value is on record as 473 nm and the pSS came out at 15800 cm^−1. The Φ in data set [2] (setting [6]) was found to be 0.61 ± 0.06.
As to `CCCCCOc1cc2c3cc(OCCCCC)c(OCCCCC)cc3c3c(cc(OCCCCC)c4oc(-c5ccc(N(C)C)cc5)nc43)c2cc1OCCCCC` [Compound 22, N,N-dimethyl-4-(2,3,6,11,12-pentakis(pentyloxy)triphenyleno[1,2-d]oxazol-8-yl)aniline], in data set [1], the QY was determined as 0.70, the “pSS (cm^−1)” value is recorded as 13150 cm^−1, the “pSS (nm)” value is given as 150 nm and the “Absorption % Abs at 355 nm” value amounted to 54%. Further, in data set [1], the “Absorption % Abs at 405 nm” value worked out at 2%, the “ε × 10^3 (M^−1 cm^−1) at 355 nm” value is listed as 39 × 10^3 M^−1 cm^−1, the “ε × 10^3 (M^−1 cm^−1) at 405 nm” value is recorded as 1.5 × 10^3 M^−1 cm^−1 and the “ε × 10^3 (M^−1 cm^−1) at λMax” value is 72 × 10^3 M^−1 cm^−1. For the same compound, in data set [1], the “Absorption λMax” value is listed as 271 nm and the “Emission λMax” value was determined as 421 nm.
Regarding `C1CCOC1` [THF, tetrahydrofuran], the “Toxicity for liver cells (cell culture compared to the reference)” value in the data set on Huh-7 cells (0.1% and 0.3% THF) was “no differences in the cell culture compared to the reference”. Besides, the “Toxicity for liver cells (dead cells)” value in the data set on Huh-7 cells (1% and 3% THF) is on record as “increasing number of dead cells”.
On to `CCCCCOc1cc2c(cc1OCCOCCOCCOC)c1cc(OCCOCCOCCOC)c(OCCOCCOCCOC)cc1c1cc(OCCOCCOCCOC)c3oc(C)nc3c21` [Compound 32, 2,3,6,12-tetrakis(2-(2-(2-methoxyethoxy)ethoxy)ethoxy)-8-methyl-11-(pentyloxy)triphenyleno[1,2-d]oxazole], for which the Water solubility result in data set [3] is reported as “water soluble”.
`CCCCCOc1cc2c3cc(OCCCCC)c(OCCCCC)cc3c3c(cc(OCCCCC)c4oc(-c5ccc(OC)cc5)nc43)c2cc1OCCCCC` [Compound 45, 8-(4-methoxyphenyl)-2,3,6,11,12-pentakis(pentyloxy)triphenyleno[1,2-d]oxazole]: in data set [1], the QY came out at 0.40, the “pSS (cm^−1)” value is 14000 cm^−1, the “pSS (nm)” value turned out to be 174 nm and the “Absorption % Abs at 355 nm” value turned out to be 22%. In addition, in data set [1], the “Absorption % Abs at 405 nm” value worked out at 0%, the “ε × 10^3 (M^−1 cm^−1) at 355 nm” value was 21 × 10^3 M^−1 cm^−1, the “ε × 10^3 (M^−1 cm^−1) at 405 nm” value was 0 × 10^3 M^−1 cm^−1 and the “ε × 10^3 (M^−1 cm^−1) at λMax” value is reported as 97 × 10^3 M^−1 cm^−1. In data set [1], the “Absorption λMax” value was found to be 270 nm and the “Emission λMax” value is on record as 444 nm.
Consider `CCCCCOc1cc2c3cc(OCCCCC)c(OCCCCC)cc3c3c(cc(OCCCCC)c4oc(-c5c6ccccc6cc6ccccc56)nc43)c2cc1OCCCCC` [Compound 6, 8-(anthracen-9-yl)-2,3,6,11,12-pentakis(pentyloxy)triphenyleno[1,2-d]oxazole], for which, in data set [2] (setting [4]), the “Absorption λmax” value was found to be 253 nm, the “Emission λmax” value came to 630 nm and the pSS is recorded as 23650 cm^−1. Besides, in data set [2] (setting [5]), the “Absorption λmax” value worked out at 253 nm, the “Emission λmax” value was 594 nm and the pSS is given as 22700 cm^−1. Further, in data set [2] (setting [6]), the “Absorption λmax” value worked out at 255 nm, the “Emission λmax” value is 384 nm and the pSS is 13200 cm^−1.
With `CCCCCOc1cc2c3cc(OCCCCC)c(OCCCCC)cc3c3c(cc(OCCCCC)c4oc(-c5cccc6ccccc56)nc43)c2cc1OCCCCC` [Compound 4, 8-(naphthalen-1-yl)-2,3,6,11,12-pentakis(pentyloxy)triphenyleno[1,2-d]oxazole], in data set [2] (setting [4]), the “Absorption λmax” value amounted to 275 nm, the Brightness was 30 ± 3 M⁻¹ cm⁻¹, the “Emission λmax” value is recorded as 543 nm and the pSS is reported as 18000 cm^−1. This compound returned a Φ in data set [2] (setting [4]) of 0.36 ± 0.04. Moreover, in data set [2] (setting [5]), the “Absorption λmax” value was 275 nm, the Brightness is 56 ± 5 M⁻¹ cm⁻¹, the “Emission λmax” value came out at 510 nm and the pSS is 16800 cm^−1. This compound also showed a Φ in data set [2] (setting [5]) of 0.48 ± 0.04. In addition, in data set [2] (setting [6]), the “Absorption λmax” value is reported as 275 nm, the Brightness amounted to 67 ± 7 M⁻¹ cm⁻¹, the “Emission λmax” value is listed as 515 nm and the pSS was determined as 17000 cm^−1. This compound registered a Φ in data set [2] (setting [6]) of 0.55 ± 0.05.
For the compound `CCCCCOc1cc2c3cc(OCCCCC)c(OCCCCC)cc3c3c(cc(OCCCCC)c4oc(-c5ccc6cc7ccccc7cc6c5)nc43)c2cc1OCCCCC` [Compound 5, 8-(anthracen-2-yl)-2,3,6,11,12-pentakis(pentyloxy)triphenyleno[1,2-d]oxazole], in data set [2] (setting [4]), the “Absorption λmax” value is recorded as 270 nm, the “Emission λmax” value came out at 592 nm, the pSS is reported as 20200 cm^−1 and the Φ worked out at 0.21 ± 0.02. Besides, in data set [2] (setting [5]), the “Absorption λmax” value was 272 nm, the Brightness was found to be 53 ± 5 M⁻¹ cm⁻¹, the “Emission λmax” value is listed as 536 nm and the pSS worked out at 18100 cm^−1. For the same compound, in data set [2] (setting [5]), the Φ came to 0.51 ± 0.04. Further, in data set [2] (setting [6]), the “Absorption λmax” value amounted to 270 nm, the Brightness stood at 50 ± 5 M⁻¹ cm⁻¹, the “Emission λmax” value is on record as 526 nm and the pSS came out at 18000 cm^−1. The Φ in data set [2] (setting [6]) came to 0.56 ± 0.05.
For `CCCCCOc1cc2c3cc(OCCCCC)c(OCCCCC)cc3c3c(cc(OCCCCC)c4oc(CCCC)nc43)c2cc1OCCCCC` [Compound 1, 8-butyl-2,3,6,11,12-pentakis(pentyloxy)triphenyleno[1,2-d]oxazole], in data set [2] (setting [4]), the “Absorption λmax” value is given as 281 nm, the Brightness turned out to be 12 ± 2 M⁻¹ cm⁻¹, the “Emission λmax” value was 367 nm and the pSS came out at 8300 cm^−1. In addition, in data set [2] (setting [4]), the Φ was determined as 0.20 ± 0.02. In data set [2] (setting [5]), the “Absorption λmax” value is 281 nm, the Brightness turned out to be 29 ± 5 M⁻¹ cm⁻¹, the “Emission λmax” value was found to be 367 nm and the pSS is recorded as 8300 cm^−1. In data set [2] (setting [5]), this compound came in with a Φ of 0.18 ± 0.01. Besides, in data set [2] (setting [6]), the “Absorption λmax” value came to 281 nm, the Brightness was 36 ± 7 M⁻¹ cm⁻¹, the “Emission λmax” value stood at 367 nm and the pSS came out at 8300 cm^−1. The same compound came in with a Φ in data set [2] (setting [6]) of 0.30 ± 0.03.
